In patent US10112899B2 (ViiV HEALTHCARE UK LIMITED, priority 2014, dated 2018) one finds IC50 data, which are given here for eleven molecules.

SMILES strings stand for the structures.

For the assay, the system named is HIV in the HTLV-1 transformed cell line MT-4. In words: organism not typed. It counts as cell-based. Conditions: MT4, 96 h, MT-4 cells; luciferase/cell titer glo readout after 96 hours; 10 point dose response. Background: Cellular ATP, detected with luciferase, serves as a proxy for viable cell number.

The IC50 is the concentration that gives 50% inhibition. Low values mean greater potency in that assay, high ones weaker potency in that assay. As to `Cc1ccc(-c2c(C)c3c(c(C)c2[C@H](OC(C)(C)C)C(=O)O)CN(C(=O)c2ccc(F)cc2F)C3)cc1` [Example 247, (S)-2-(tert-butoxy)-2-(2-(2,4-difluorobenzol)-4,7-dimethyl-6-(p-tolyl)isoindolin-5-yl)acetic acid], the midpoint of inhibition, the IC50, lay at 5 nM.
Under `Cc1ccc(-c2c(C)c3c(c(C)c2[C@H](OC(C)(C)C)C(=O)O)CN(Cc2cccc(C(F)(F)F)c2)C3)cc1` [Example 28, (S)-2-(tert-butoxy)-2-(4,7-dimethyl-6-(p-tolyl)-2-(3-(trifluoromethyl)benzyl)isoindolin-5-yl)acetic acid] stands 94 nM; under `Cc1c(-c2c(C)c3c(c(C)c2[C@H](OC(C)(C)C)C(=O)O)CN(C(=O)c2cccc(F)c2)C3)cc(F)c2c1NCCO2` (atropisomer, axis not shown; (M)) [Example 301, (S)-2-(tert-butoxy)-2-(6-((M)-8-fluoro-5-methyl-3,4-dihydro-2H-benzo[b][1,4]oxazin-6-yl)-2-(3-fluorobenzoyl)-4,7-dimethylisoindolin-5-yl)acetic acid], 5 nM; under `Cc1ccc(-c2c(C)c3c(c(C)c2[C@H](OC(C)(C)C)C(=O)O)CN(C(=O)N2CCOCC2)C3)cc1` [Example 57, (2S)-2-(tert-butoxy)-2-[4,7-dimethyl-6-(4-methylphenyl)-2-(morpholine-4-carbonyl)-2,3-dihydro-1H-isoindol-5-yl]acetic acid], 44 nM.
Under `Cc1ccc(F)cc1C(=O)N1Cc2c(C)c(-c3cc(F)c4c(c3C)CCCO4)c([C@H](OC(C)(C)C)C(=O)O)c(C)c2C1` [Example 136, (S)-2-(tert-butoxy)-2-((R)-2-(5-fluoro-2-methylbenzoyl)-6-(8-fluoro-5-methylchroman-6-yl)-4,7-dimethylisoindolin-5-yl)acetic acid] stands 2 nM.
As to `Cc1ccc(-c2c(C)c3c(c(C)c2[C@H](OC(C)(C)C)C(=O)O)CN(C(=O)c2cc(C)cc(F)c2)C3)cc1` [Example 123, (S)-2-(tert-butoxy)-2-(2-(3-fluoro-5-methylbenzoyl)-4,7-dimethyl-6-(p-tolyl)isoindolin-5-yl)acetic acid], the IC50 stood at 4 nM.
For the molecule `Cc1ccc(-c2c(C)c3c(c(C)c2[C@H](OC(C)(C)C)C(=O)O)CN(C(=O)c2cccc(Cl)c2)C3)cc1` [Example 220, (S)-2-(tert-butoxy)-2-(2-(3-chlorobenzoyl)-4,7-dimethyl-6-(p-tolyl)isoindolin-5-yl)acetic acid], the IC50 was found to be 4 nM.
`Cc1ccc(-c2c(C)c3c(c(C)c2[C@H](OC(C)(C)C)C(=O)O)CN(C(=O)N[C@H]2CC[C@H](C)CC2)C3)cc1` [Example 33, (S)-2-(tert-butoxy)-2-(4,7-dimethyl-2-(((1r,4S)-4-methylcyclohexyl)carbamoyl)-6-(p-tolyl)isoindolin-5-yl)acetic acid] had an IC50 of 616 nM. This IC50 lies about 150-fold higher than the previous one.
Molecule `Cc1ccc(-c2c(C)c3c(c(C)c2[C@H](OC(C)(C)C)C(=O)O)CN(C(=O)N2CCS(=O)(=O)CC2)C3)cc1` [Example 64, (2S)-2-(tert-butoxy)-2-[2-(1,1-dioxo-1λ^6,4-thiomorpholine-4-carbonyl)-4,7-dimethyl-6-(4-methylphenyl)-2,3-dihydro-1H-isoindol-5-yl]acetic acid] had a 50% inhibitory concentration (IC50) of 106 nM.
As for `Cc1ccc(-c2c(C)c3c(c(C)c2[C@H](OC(C)(C)C)C(=O)O)CN(CC2CCOCC2)C3)cc1` [Example 12, (S)-2-(tert-butoxy)-2-(4,7-dimethyl-2-((tetrahydro-2H-pyran-4-yl)methyl)-6-(p-tolyl)isoindolin-5-yl)acetic acid], the half-maximal inhibitory concentration (IC50) amounted to 820 nM.
Consider `Cc1ccc(-c2c(C)c3c(c(C)c2[C@H](OC(C)(C)C)C(=O)O)CN(C(=O)N2CCC[C@@H]2C)C3)cc1` [Example 87, (S)-2-(tert-butoxy)-2-(4,7-dimethyl-2-((S)-2-methylpyrrolidine-1-carbonyl)-6-(p-tolyl)isoindolin-5-yl)acetic acid], for which the IC50 is 5 nM.
